From patent US11000033B2, “Ketone or oxime compound, and herbicide” (NISSAN CHEMICAL CORPORATION, priority 2014, dated 2021)

Tests used:
Assay type in all cases: in vivo
rapeseed = assay: Test Example 4: effect on crop by soil treatment (symbol g); settings: application herbicide amount 320 g/ha
Summary of the method: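 Plants grew in a 25° C. to 30° C. greenhouse after spot-sowing of seeds, including beet, rapeseed, wheat and rice, into sterilized diluvial soil under roughly 1.5 cm of cover soil.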

Leptochloa chinensis = assay: Test Example 3: herbicidal effect by foliage application, Wagner pot (symbol D); settings: application herbicide amount 320 g/ha; for D (Leptochloa chinensis) herbicidal effect grade: Table 24
Summary of the method: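 Foliar spray of a water-diluted emulsion at a predetermined herbicide amount, applied to 14-day-old plants. Seedlings were raised in flooded alluvial soil (0.1–0.5 cm water) at 25–30 °C in a greenhouse. Injury was rated after 3 weeks against fixed criteria.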

Alopecurus myosuroides = assay: Test Example 4: herbicidal effect by soil treatment (symbol J); settings: application herbicide amount 320 g/ha
Summary of the method: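 Seeds were sown in sterilized diluvial soil, covered with about 1.5 cm of soil, and the soil surface was sprayed with a water-diluted emulsion of the compound at a predetermined rate. Plants grew in a greenhouse at 25° C. to 30° C.; effects were scored visually 3 weeks after application.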

In the case of CC(=O)CC1CC(O)=C(c2c(C)cc(OCc3ccccc3)cc2C)C1=O (stereo not drawn) [7-018], the “Effect on crop grade, g: rapeseed” value (rapeseed) is reported as 0 (Herbicidal ratio of 5% or lower (almost no effect)), the “herbicidal effect on D (Leptochloa chinensis), grade 0-5” value (from here on “herbicidal effect on D”) (Leptochloa chinensis) is reported as 5 (Herbicidal ratio of 90% or more (almost completely withered)) and the “Herbicidal effect grade, J: Alopecurus myosuroides” value (“Herbicidal effect grade, J” for short) (Alopecurus myosuroides) is reported as 0 (Herbicidal ratio of 5% or lower (almost no effect)).

With CON=C(C)CC1CC(O)=C(c2c(C)cc(-c3ccc(Cl)cc3)cc2OC)C1=O (stereo not drawn) [6-077, 2-(4′-chloro-3-methoxy-5-methyl-[1,1′-biphenyl]-4-yl)-3-hydroxy-5-{2-(methoxyimino)propyl}cyclopent-2-enone] the “g: rapeseed, effect on crop grade” value (rapeseed) was 4 (Herbicidal ratio of 70% or higher and lower than 90%), the “herbicidal effect on D” value (Leptochloa chinensis) was 5 (Herbicidal ratio of 90% or more (almost completely withered)) and the “J: Alopecurus myosuroides, herbicidal effect grade” value (Alopecurus myosuroides) was 5 (Herbicidal ratio of 90% or more (almost completely withered)).

CC(=O)C1CC(O)=C(c2c(C)cc(C)cc2C)C1=O (stereo not drawn) [8-001] was tested, and the “Effect on crop grade, g: rapeseed” value (rapeseed) was 0 (Herbicidal ratio of 5% or lower (almost no effect)), the “D (Leptochloa chinensis) herbicidal effect grade” value (Leptochloa chinensis) was 0 (Herbicidal ratio of 5% or lower (almost no effect)) and the “Herbicidal effect grade, J” value (Alopecurus myosuroides) was 0 (Herbicidal ratio of 5% or lower (almost no effect)).

CON=C(C)CC1CC(OC(=O)N2CCCCC2)=C(c2c(C)cc(C)cc2OC)C1=O (stereo not drawn) [6-111] was tested, and the “Effect on crop grade, g: rapeseed” value (rapeseed) was 0 (Herbicidal ratio of 5% or lower (almost no effect)), the “herbicidal effect on D” value (Leptochloa chinensis) was 5 (Herbicidal ratio of 90% or more (almost completely withered)) and the “Herbicidal effect grade, J” value (Alopecurus myosuroides) was 5 (Herbicidal ratio of 90% or more (almost completely withered)).

CC(=O)CC1CC(O)=C(c2c(C)cc(Br)cc2C)C1=O (stereo not drawn) [7-002] was tested, and the “Effect on crop grade, g: rapeseed” value (rapeseed) was 0 (Herbicidal ratio of 5% or lower (almost no effect)), the “herbicidal effect on D” value (Leptochloa chinensis) was 5 (Herbicidal ratio of 90% or more (almost completely withered)) and the “Herbicidal effect grade, J” value (Alopecurus myosuroides) was 3 (Herbicidal ratio of 40% or higher and lower than 70%).

With CON=C(C)CC1CC(OS(=O)(=O)N(C)C)=C(c2c(C)cc(C)cc2OC)C1=O (stereo not drawn) [6-095] the “Effect on crop grade, g: rapeseed” value (rapeseed) was 4 (Herbicidal ratio of 70% or higher and lower than 90%), the “herbicidal effect on D” value (Leptochloa chinensis) was 5 (Herbicidal ratio of 90% or more (almost completely withered)) and the “Herbicidal effect grade, J” value (Alopecurus myosuroides) was 5 (Herbicidal ratio of 90% or more (almost completely withered)).

CON=C(C)CC1CC(OC(=O)COc2ccccc2)=C(c2c(C)cc(-c3ccc(Cl)cc3Cl)cc2C)C1=O (stereo not drawn) [6-092] was tested, and the “Effect on crop grade, g: rapeseed” value (rapeseed) was 0 (Herbicidal ratio of 5% or lower (almost no effect)), the “herbicidal effect on D” value (Leptochloa chinensis) was 5 (Herbicidal ratio of 90% or more (almost completely withered)) and the “Herbicidal effect grade, J” value (Alopecurus myosuroides) was 3 (Herbicidal ratio of 40% or higher and lower than 70%).

In the case of CC(=O)CC1CC(O)=C(c2c(C)cc(OCC(F)(F)F)cc2C)C1=O (stereo not drawn) [7-015], the “Effect on crop grade, g: rapeseed” value (rapeseed) is reported as 2 (Herbicidal ratio of 20% or higher and lower than 40%), the “herbicidal effect on D” value (Leptochloa chinensis) is reported as 5 (Herbicidal ratio of 90% or more (almost completely withered)) and the “Herbicidal effect grade, J” value (Alopecurus myosuroides) is reported as 5 (Herbicidal ratio of 90% or more (almost completely withered)).

With CON=C(C)CC1CC(OC(=O)N2CCOCC2)=C(c2c(C)cc(-c3ccc(F)c(Cl)c3)cc2C)C1=O (stereo not drawn) [6-093] the “Effect on crop grade, g: rapeseed” value (rapeseed) was 0 (Herbicidal ratio of 5% or lower (almost no effect)), the “herbicidal effect on D” value (Leptochloa chinensis) was 5 (Herbicidal ratio of 90% or more (almost completely withered)) and the “Herbicidal effect grade, J” value (Alopecurus myosuroides) was 3 (Herbicidal ratio of 40% or higher and lower than 70%).

CC(=O)CC1CC(O)=C(c2c(C)cc(-c3ccccc3)cc2C)C1=O (stereo not drawn) [7-004] was tested, and the “Effect on crop grade, g: rapeseed” value (rapeseed) was 3 (Herbicidal ratio of 40% or higher and lower than 70%), the “herbicidal effect on D” value (Leptochloa chinensis) was 5 (Herbicidal ratio of 90% or more (almost completely withered)) and the “Herbicidal effect grade, J” value (Alopecurus myosuroides) was 5 (Herbicidal ratio of 90% or more (almost completely withered)).

For CON=C(C)CC1CC(OC(=O)N2CCOCC2)=C(c2c(C)cc(-c3ccc(Cl)cc3)cc2C)C1=O (mixture of isomers) [6-062], the “g: rapeseed, effect on crop grade” value (rapeseed) was 0 (Herbicidal ratio of 5% or lower (almost no effect)), the “herbicidal effect on D” value (Leptochloa chinensis) was 5 (Herbicidal ratio of 90% or more (almost completely withered)) and the “J: Alopecurus myosuroides, herbicidal effect grade” value (Alopecurus myosuroides) was 4 (Herbicidal ratio of 70% or higher and lower than 90%).

In the case of CON=C(C)CC1CC(OC(=O)C(C)(C)Oc2ccccc2)=C(c2c(C)cc(C)cc2C)C1=O (stereo not drawn) [1-017], the “g (rapeseed) effect on crop grade” value (rapeseed) is reported as 4 (Herbicidal ratio of 70% or higher and lower than 90%), the “herbicidal effect on D” value (Leptochloa chinensis) is reported as 5 (Herbicidal ratio of 90% or more (almost completely withered)) and the “J (Alopecurus myosuroides) herbicidal effect grade” value (Alopecurus myosuroides) is reported as 5 (Herbicidal ratio of 90% or more (almost completely withered)).

CC(=O)CC1CC(O)=C(c2c(C)cc(Oc3ccc(C(F)(F)F)cn3)cc2C)C1=O (stereo not drawn) [7-019] was tested, and the “Effect on crop grade, g: rapeseed” value (rapeseed) was 0 (Herbicidal ratio of 5% or lower (almost no effect)), the “herbicidal effect on D” value (Leptochloa chinensis) was 4 (Herbicidal ratio of 70% or higher and lower than 90%) and the “Herbicidal effect grade, J” value (Alopecurus myosuroides) was 0 (Herbicidal ratio of 5% or lower (almost no effect)).

For CC(=O)CC1CC(O)=C(c2c(C)cc(-c3ccc(Cl)cc3)cc2C)C1=O (stereo not drawn) [7-008], the “Effect on crop grade, g: rapeseed” value (rapeseed) was 0 (Herbicidal ratio of 5% or lower (almost no effect)), the “herbicidal effect on D” value (Leptochloa chinensis) was 5 (Herbicidal ratio of 90% or more (almost completely withered)) and the “Herbicidal effect grade, J” value (Alopecurus myosuroides) was 5 (Herbicidal ratio of 90% or more (almost completely withered)).

CON=C(C)CC1CC(OC(=O)C(C)(C)CCl)=C(c2c(C)cc(C)cc2C)C1=O (stereo not drawn) [1-016] was tested, and the “g (rapeseed) effect on crop grade” value (rapeseed) was 4 (Herbicidal ratio of 70% or higher and lower than 90%), the “herbicidal effect on D” value (Leptochloa chinensis) was 5 (Herbicidal ratio of 90% or more (almost completely withered)) and the “J (Alopecurus myosuroides) herbicidal effect grade” value (Alopecurus myosuroides) was 5 (Herbicidal ratio of 90% or more (almost completely withered)).

With CON=C(C)CC1CC(O)=C(c2c(C)cc(-c3ncccn3)cc2C)C1=O (mixture of isomers) [6-057] the “g: rapeseed, effect on crop grade” value (rapeseed) was 1 (Herbicidal ratio of 5% or higher and lower than 20%), the “herbicidal effect on D” value (Leptochloa chinensis) was 5 (Herbicidal ratio of 90% or more (almost completely withered)) and the “J: Alopecurus myosuroides, herbicidal effect grade” value (Alopecurus myosuroides) was 3 (Herbicidal ratio of 40% or higher and lower than 70%).

For CON=C(C)C(=O)C1CC(O)=C(c2c(C)cc(C)cc2C)C1=O (stereo not drawn) [8-002], the “Effect on crop grade, g: rapeseed” value (rapeseed) was 0 (Herbicidal ratio of 5% or lower (almost no effect)), the “D (Leptochloa chinensis) herbicidal effect grade” value (Leptochloa chinensis) was 0 (Herbicidal ratio of 5% or lower (almost no effect)) and the “Herbicidal effect grade, J” value (Alopecurus myosuroides) was 0 (Herbicidal ratio of 5% or lower (almost no effect)).

CON=C(C)CC1CC(O)=C(c2c(C)cc(-c3cc(Cl)cc(Cl)c3)cc2C)C1=O (stereo not drawn) [6-087] was tested, and the “Effect on crop grade, g: rapeseed” value (rapeseed) was 1 (Herbicidal ratio of 5% or higher and lower than 20%), the “herbicidal effect on D” value (Leptochloa chinensis) was 5 (Herbicidal ratio of 90% or more (almost completely withered)) and the “Herbicidal effect grade, J” value (Alopecurus myosuroides) was 4 (Herbicidal ratio of 70% or higher and lower than 90%).

CON=C(C)C(C)C1CC(O)=C(c2c(C)cc(Br)cc2OC)C1=O (stereo not drawn) [6-113] was tested, and the “Effect on crop grade, g: rapeseed” value (rapeseed) was 1 (Herbicidal ratio of 5% or higher and lower than 20%), the “herbicidal effect on D” value (Leptochloa chinensis) was 5 (Herbicidal ratio of 90% or more (almost completely withered)) and the “Herbicidal effect grade, J” value (Alopecurus myosuroides) was 5 (Herbicidal ratio of 90% or more (almost completely withered)).

CON=C(C)C(C(C)=NOC)C1CC(O)=C(c2c(C)cc(C)cc2C)C1=O (stereo not drawn) [1-021] was tested, and the “g (rapeseed) effect on crop grade” value (rapeseed) was 0 (Herbicidal ratio of 5% or lower (almost no effect)), the “herbicidal effect on D” value (Leptochloa chinensis) was 0 (Herbicidal ratio of 5% or lower (almost no effect)) and the “J (Alopecurus myosuroides) herbicidal effect grade” value (Alopecurus myosuroides) was 0 (Herbicidal ratio of 5% or lower (almost no effect)).

In the case of CC(CC1CC(O)=C(c2c(C)cc(C)cc2C)C1=O)=NOCc1ccccc1 (stereo not drawn) [1-020], the “g (rapeseed) effect on crop grade” value (rapeseed) is reported as 4 (Herbicidal ratio of 70% or higher and lower than 90%), the “herbicidal effect on D” value (Leptochloa chinensis) is reported as 5 (Herbicidal ratio of 90% or more (almost completely withered)) and the “J (Alopecurus myosuroides) herbicidal effect grade” value (Alopecurus myosuroides) is reported as 5 (Herbicidal ratio of 90% or more (almost completely withered)).

For CON=C(C)CC1CC(O)=C(c2c(C)cc(-c3ccsc3)cc2C)C1=O (stereo not drawn) [6-106], the “Effect on crop grade, g: rapeseed” value (rapeseed) was 3 (Herbicidal ratio of 40% or higher and lower than 70%), the “herbicidal effect on D” value (Leptochloa chinensis) was 5 (Herbicidal ratio of 90% or more (almost completely withered)) and the “Herbicidal effect grade, J” value (Alopecurus myosuroides) was 3 (Herbicidal ratio of 40% or higher and lower than 70%).

CC(=O)CC1CC(O)=C(c2c(C)cc(C)cc2Br)C1=O (stereo not drawn) [7-011] was tested, and the “Effect on crop grade, g: rapeseed” value (rapeseed) was 4 (Herbicidal ratio of 70% or higher and lower than 90%), the “herbicidal effect on D” value (Leptochloa chinensis) was 4 (Herbicidal ratio of 70% or higher and lower than 90%) and the “Herbicidal effect grade, J” value (Alopecurus myosuroides) was 3 (Herbicidal ratio of 40% or higher and lower than 70%).
